Laboratory results from US6313171A, “Method for preventing or treating elevated blood lipid level-related diseases by administering cinnamic acid derivatives” (Korea Research Institute of Bioscience & Biotechnology, priority 1998, dated 2001).

How the values were obtained:
[1] = Farmer et al. 1995; cited from earlier work
main artery = assay: Analysis for fatty streak in the main artery of rabbits; type: in vivo, rabbit (New Zealand White)
Protocol: Cinnamic acid derivatives were purchased from Sigma Chemical Co. (St. Louis, Mo.). The rabbits were fed for 8 weeks while being allowed free access to the diets and water. The chest of each of the rabbits sacrificed in Step 2 was incised. […] The main artery was incised in the middle along the longitudinal axis and pinned to a dish. The moist artery was photographed and, then, the staining of fatty streaks was carried out in accordance with the method of […]., et al. (J. Lab. Clin. Med., 121, 103-110(1993)) as follows. A part of the incised main artery was washed three times with anhydrous propylene glycol for 2 min. and stained for 30 min. with a saturated solution of Oil Red O (ORO, Sigma Co.) dissolved in propylene glycol. Thereafter, the artery was washed twice with 85% propylene glycol for 3 min. to remove remaining staining solution and, then washed with physiological saline. The artery was photographed and the photograph was traced. The area of stained region (fatty streak region) was determined with an image analyzer (LEICA, Q-600, Germany) and its proportion (%) to the total arterial area was calculated.

liver = assay: Prevention of hepatic diseases: microscopic fatty liver grading in rabbits; type: in vivo, rabbit (New Zealand White)
Protocol: (§1) 30 three-month-old male New Zealand White rabbits (Yeonam Horticulture and Animal Husbandry College, Korea), each weighing about 2.5 to 2.6 kg, were raised under condition of temperature 20±2° C., relative humidity 55±5%, and photoperiod 12L/12D. The rabbits were divided into 5 groups and 5 groups of rabbits were fed with 5 different diets, i.e., RC4 diet (Oriental Yeast Co., Japan) containing 1% cholesterol (Control group); 1% cholesterol plus 1 mg/kg Lovastatin® (Merck, U.S.A.) (Lovastatin group); 1% cholesterol plus 0.1% 4-hydroxycinnamic acid (4-hydroxycinnamic acid group); 1% cholesterol plus 0.1% 3,4-dihydroxycinnamic acid (3,4-dihydroxycinnamic acid group); and 1% cholesterol plus 0.1% 3,4-dihydroxyhydrocinnamic acid (3,4-dihydroxyhydrocinnamic acid group), respectively. RC4 diet comprises 7.6% moisture, 22.8% crude protein, 2.8% crude fat, 8.8% crude ash, 14.4% crude cellulose and 43.6% soluble nitrogen-free substances. Cinnamic acid derivatives were purchased from Sigma Chemical Co. (St. Louis, Mo.).
(§2) The rabbits were fed for 8 weeks while being allowed free access to the diets and water.

[2] = type: in vivo, rabbit (New Zealand White); conditions: rabbits, 1% cholesterol diet plus 0.1% derivative or 1 mg/kg Lovastatin, 8 weeks
Protocol: as §1, §2
After eight weeks, the rabbits were anesthetized with an intramuscular injection of ketamine (50 mg/kg) in the femoral region and sacrificed. A blood sample was taken from the heart of each rabbit, allowed to stand for 2 hours and centrifuged at 3,000 rpm for 15 minutes and the supernatant serum was separated and stored in a freezer before use.
The chemical analysis of blood was carried out by employing a blood chemical analyzer (CIBA Corning 550 Express, USA) to determine the changes in GOT, GPT, total cholesterol, HDL-cholesterol and triglyceride levels.

In the case of CC[C@H](C)C(=O)O[C@H]1C[C@@H](C)C=C2C=C[C@H](C)[C@H](CC[C@@H]3C[C@@H](O)CC(=O)O3)[C@H]21 [Lovastatin, reference compound], the side effects [1] is listed as “increase in creatine kinase in the liver and rhabdomyolysis”, the “macrophage-lipid complex on the arterial endothelium” value (main artery; FIGS. 1A-1E, control: a thick layer) is listed as “no or very thin layers of macrophage-lipid complex” and the Fatty streak (main artery; proportion of total arterial area, Oil Red O, rabbits, 8 weeks, Control 80 ± 8) is listed as 15 ± 3%. For the same molecule, the “microscopic features of the liver” value (liver; FIGS. 2A-2E, control: many cells containing excessive fat around the central vein) was “many cells containing excessive fat were observed around the central vein”, the “fatty liver grade (1+ to 4+)” value (liver; grades 1+(0-25%), 2+(26-50%), 3+(51-75), 4+(76-100%), rabbits, 8 weeks, Control 3.2 ± 0.3) was 3.4 ± 0.5 and the HDL/TC ([2]; Control 2.5 ± 0.4) was 4.9 ± 2.6%. For the same molecule, the “HDL-C (High density lipoprotein-cholesterol)” value ([2]; Control 50 ± 11) was 58 ± 23 mg/dL, the “TG (Triglyceride)” value ([2]; Control 170 ± 30) was 153 ± 95 mg/dL and the “TC (Total cholesterol)” value ([2]; Control 1995 ± 472) was 1446 ± 263 mg/dL.
